The source of these data is ChEMBL document CHEMBL1147478, “Phosphonate inhibitors of antigen 85C, a crucial enzyme involved in the biosynthesis of the Mycobacterium tuberculosis cell wall” (Bioorg Med Chem Lett, 2004).

The assay has as its target Diacylglycerol acyltransferase/mycolyltransferase Ag85C (Mycobacterium tuberculosis, UniProt P9WQN9). Description: In vitro concentration required to inhibit antigen 85C mycolyltransferase activity in Mycobacterium tuberculosis.

Diacylglycerol acyltransferase/mycolyltransferase Ag85C, sequence (P9WQN9 whole entry): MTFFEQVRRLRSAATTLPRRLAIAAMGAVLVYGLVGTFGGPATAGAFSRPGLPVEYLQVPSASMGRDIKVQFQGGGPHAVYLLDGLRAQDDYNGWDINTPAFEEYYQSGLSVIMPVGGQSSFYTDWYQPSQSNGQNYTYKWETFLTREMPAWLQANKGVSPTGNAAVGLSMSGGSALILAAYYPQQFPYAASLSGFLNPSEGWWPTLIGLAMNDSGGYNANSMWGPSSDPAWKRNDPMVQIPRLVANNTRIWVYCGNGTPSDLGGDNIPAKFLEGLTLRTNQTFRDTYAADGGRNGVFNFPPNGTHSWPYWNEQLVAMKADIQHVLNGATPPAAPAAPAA

For the molecule `CCCCCCCP(=O)(OCC)OCN1C(=O)c2ccccc2C1=O` (configuration not stated), the IC50 worked out at 1.31 µM.
With `CCCCCCCCCCCCCCP(=O)(OCC)OCN1C(=O)c2ccccc2C1=O` (configuration not stated), the half-inhibitory concentration (IC50) came to 41 µM.
For `CCCCP(=O)(OCC)OCc1cccc(Oc2ccccc2)c1` (configuration not stated) the value was 2.01 µM; for `CCCCCCP(=O)(OCC)OCc1cccc(Oc2ccccc2)c1` (configuration not stated), 42.6 µM; for `CCCCCCCCCP(=O)(OCC)OCCN1C(=O)c2ccccc2C1=O` (configuration not stated), 25.7 µM.
As for `CCCCCCCCCCCCCCP(=O)(OCC)OCc1cccc(Oc2ccccc2)c1` (configuration not stated), the midpoint of inhibition, the IC50, lay at 862 µM.
For the molecule `CCCCCCCP(=O)(OCC)OCc1cccc(Oc2ccccc2)c1` (configuration not stated), the concentration for half-maximal inhibition (IC50) is 21 µM.
Consider `CCCCCCCCCP(=O)(OCC)OCc1cccc(Oc2ccccc2)c1` (configuration not stated), for which half-maximal inhibition (IC50) was put at 14.8 µM.
Turning to `CCCCCCCP(=O)(O)OCCN1C(=O)c2ccccc2C1=O`, the midpoint of inhibition, the IC50, lay at 1.47 µM.
Turning to `CCCCCCCCCP(=O)(OCC)OCN1C(=O)c2ccccc2C1=O` (configuration not stated), the 50% inhibitory concentration (IC50) was found to be 87.1 µM.
For `CCCCP(=O)(OCC)OCN1C(=O)c2ccccc2C1=O` (configuration not stated) the value was 10 µM; for `CCCCP(=O)(OCC)OCCN1C(=O)c2ccccc2C1=O` (configuration not stated), 50.7 µM; for `CCCCCCP(=O)(O)OCCN1C(=O)c2ccccc2C1=O`, 4.39 µM.
As for `CCCCP(=O)(O)OCC` [ETHYL HYDROGEN BUTYLPHOSPHONATE], the IC50 was 431 µM.
For the molecule `CCCCCCCP(=O)(O)OCC` [ETHYL HYDROGEN HEPTYLPHOSPHONATE], the half-maximal inhibitory concentration (IC50) was determined as 1.06 µM.
In turn, `CCCCCCP(=O)(O)OCC` [ETHYL HYDROGEN HEXYLPHOSPHONATE] gave a half-inhibitory concentration (IC50) of 3.56 µM.
With `CCCCCCCCCP(=O)(O)OCC` [ETHYL HYDROGEN NONYLPHOSPHONATE], the IC50 was 471 µM.

Usually IC50 stands for the concentration at which inhibition is half-maximal. Low values mean higher potency, high ones lower potency.
